For orientation: pIC50 means the IC50 on a negative log10 scale, so that one unit is a factor of ten.

These results are taken from ChEMBL document CHEMBL3734670, “Synthetic spirocyclic endoperoxides: new antimalarial scaffolds” (Medchemcomm, 2015).

pIC50: −log10 of the molar value.

The test system of one series is Plasmodium falciparum. The series is described as follows: Antiplasmodial activity against chloroquine-sensitive Plasmodium falciparum D10 infected in human A positive erythrocyte assessed as inhibition of parasite growth after 72 hrs by parasite lactate dehydrogenase assay. Particulars: D10, 72 h. It is filed as functional, organism-based.
With `C[C@@]1(CC23CC4CC(CC(C4)C2)C3)C[C@]2(C)CCO[C@@H]2OO1` (mixture of isomers), the pIC50 is 6.07.

Regarding `C[C@@]12CCO[C@@H]1OOC1(CCCCC1)CC2` (racemic), the pIC50 was less than 4.70.

In the case of `C1CCC2(CC1)OO[C@H]1CCCC[C@H]12` (racemic), the pIC50 is 5.14.

Consider `C[C@@]12CCO[C@@H]1OOC21CCCCC1` (racemic), for which the pIC50 was 5.07.

As to `C[C@@]12CCO[C@@H]1OOC1(C2)C2CC3CC(C2)CC1C3` (mixture of isomers), the pIC50 is 6.21.

On to `C[C@@]12CCO[C@@H]1OOC1(CCCCC1)C2` (racemic), for which the pIC50 was 5.28.

On to `C[C@@]12CCO[C@@H]1OO[C@@](C)(C1CCCC1)C2` (mixture of isomers), for which the pIC50 is 5.92.

Consider `C[C@@]12CCO[C@@H]1OO[C@@](C)(C1CCCCC1)C2` (mixture of isomers), for which the pIC50 is 6.41.

For `C[C@@]12CCO[C@@H]1OOC1(CCCC1)C2` (racemic), the pIC50 is 6.08.

For a further series, the system named is Plasmodium falciparum. The series is described as follows: Antiplasmodial activity against chloroquine-resistant Plasmodium falciparum W2 infected in human A positive erythrocyte assessed as inhibition of parasite growth after 72 hrs by parasite lactate dehydrogenase assay. The format is functional, organism-based. Particulars: W2, 72 h.
On to `C[C@@]1(CC23CC4CC(CC(C4)C2)C3)C[C@]2(C)CCO[C@@H]2OO1` (mixture of isomers), for which the negative logarithm of the IC50 (pIC50) was 6.41.

As for `C[C@@]12CCO[C@@H]1OOC1(CCCCC1)CC2` (racemic), the pIC50 is less than 4.77.

With `C1CCC2(CC1)OO[C@H]1CCCC[C@H]12` (racemic), the pIC50 is 5.49.

As to `C[C@@H]1CC[C@H]2[C@@H](C)C(=O)O[C@@H]3O[C@@]4(C)CC[C@@H]1[C@]32OO4` [ARTEMISININ], the pIC50 is 7.92.

Take `C[C@@]12CCO[C@@H]1OOC21CCCCC1` (racemic): the pIC50 was less than 4.60.

On to `C[C@@]12CCO[C@@H]1OOC1(C2)C2CC3CC(C2)CC1C3` (mixture of isomers), for which the pIC50 was 6.80.

`C[C@@]12CCO[C@@H]1OOC1(CCCCC1)C2` (racemic): the pIC50 is 5.96.

`C[C@@]12CCO[C@@H]1OO[C@@](C)(C1CCCC1)C2` (mixture of isomers): the pIC50 was 6.10.

As to `C[C@@]12CCO[C@@H]1OO[C@@](C)(C1CCCCC1)C2` (mixture of isomers), the pIC50 is 6.85.

With `C[C@@]12CCO[C@@H]1OOC1(CCCC1)C2` (racemic), the pIC50 is 6.33.

The next series has as its system Plasmodium berghei. The series is described as follows: Antimalarial activity against chloroquine-sensitive Plasmodium berghei ANKA erythrocytic stage infected in BALB/c mouse assessed as reduction in parasitaemia at 100 mg/kg, ip qd after 5 days by Peters 4 days test. The format is functional.
Details: not given
Also noted: scale not given: the % may be the effect or the level left.
As for `C[C@@]12CCO[C@@H]1OOC1(C2)C2CC3CC(C2)CC1C3` (mixture of isomers), the Activity was determined as 72.5%.

A further series concerns Mus musculus. Kind of series: Toxicity against BALB/c mouse infected with chloroquine-sensitive Plasmodium berghei ANKA at 100 mg/kg, ip qd for 5 days. It is filed as organism-based. Particulars: in vivo, 120 h.
As to `C[C@@]12CCO[C@@H]1OOC1(C2)C2CC3CC(C2)CC1C3` (mixture of isomers), the Activity entry was “Non-toxic”.

Test system in the next series: not listed separately
Kind of series: Cytotoxicity against mouse NIH/3T3 cells assessed as cell viability after 24 hrs by neutral red uptake assay. It is filed as cell-based, NIH3T3. Particulars: read-out: TC50.
Turning to `C[C@@]12CCO[C@@H]1OOC1(C2)C2CC3CC(C2)CC1C3` (mixture of isomers), the CC50 at 24 h came to 150000 nM.
